PubChem BioAssay (NCI)
“And” between values parts separate entries of the source, which are not always exact repeats. Equal entries are not always repeated.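 1) Cells in 96-well plates. 2) Compound, 48 h, 5 concentrations. 3) Linear interpolation between surrounding doses. 4) Unreached endpoint = highest concentration. Here, GI50 denotes the concentration required for 50% inhibition of growth. The concentration for full growth arrest is given as TGI.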

How the values were obtained:
Assay in all cases: DTP human tumour cell line panel, 48 h
SN12C renal = tested on: SN12C renal
M14 melanoma = tested on: M14 melanoma
CAKI-1 renal = tested on: CAKI-1 renal
NCI-H522 lung = tested on: NCI-H522 lung
SK-MEL-5 melanoma = tested on: SK-MEL-5 melanoma
MDA-MB-231 breast = tested on: MDA-MB-231 breast
EKVX NSCLC = tested on: EKVX NSCLC
MCF7 breast = tested on: MCF7 breast
LOX IMVI melanoma = tested on: LOX IMVI melanoma
SF-539 CNS = tested on: SF-539 CNS

Compound | GI50 (SN12C renal) [µM] | TGI (SN12C renal) | GI50 (M14 melanoma) [µM] | TGI (M14 melanoma) [µM] | GI50 (CAKI-1 renal) [µM] | TGI (CAKI-1 renal) [µM] | GI50 (NCI-H522 lung) [µM] | TGI (NCI-H522 lung) | GI50 (SK-MEL-5 melanoma) [µM] | TGI (SK-MEL-5 melanoma) | GI50 (MDA-MB-231 breast) [µM] | TGI (MDA-MB-231 breast) [µM] | GI50 (EKVX NSCLC) [µM] | TGI (EKVX NSCLC) [µM] | GI50 (MCF7 breast) [µM] | TGI (MCF7 breast) [µM] | GI50 (LOX IMVI melanoma) [µM] | TGI (LOX IMVI melanoma) | GI50 (SF-539 CNS) [µM] | TGI (SF-539 CNS)
CCN(CC)CC(O)COc1c(Br)c(Br)c(Br)c2c1OC(C)(C)C2 (configuration not stated) | 6.22 | 19.8 µM | 2.01 | 4.12 | 6.8 | 23.8 | 3.42 | 14.4 µM | 1.82 | 3.24 µM | 2.44 | 6.08 | 3.04 | 9.64 | 1.92 | 4.06 | 2.08 | 3.67 µM | 4.34 | 16.4 µM
COc1cc2c(cc1OCCCCn1c(-c3cccs3)nc3ccccc31)N=C[C@@H]1CCCN1C2=O | 2.5 | 8.65 µM | 1.35 | 2.8 | 0.949 | 6.71 | 1.04 | 3.14 µM | 1.09 | 2.3 µM | 1.39 | 5.22 | 3.36 | 11.1 | 0.66 | 12.5 | 0.789 | 3.93 µM | 1.72 | 3.66 µM
NC(=N\N=C/c1ccc(Cl)cc1Cl)/C(N)=N\N=C/c1ccc(Cl)cc1Cl | 30.7 | > 100 µM | > 83.1 | > 100 | 16.3 | > 100 | 63 | > 100 µM | > 100 | > 100 µM | 17.1 | > 100 | 30.7 | > 100 | > 73.8 | > 100 | 25.5 | > 100 µM | 8.3 | > 100 µM
O=C(O)c1ccc(Oc2nc3ccccc3s2)cc1 |  | > 100 µM |  | > 100 |  | > 100 |  | > 100 µM |  | > 100 µM |  | > 100 |  | > 100 |  | > 100 |  | > 100 µM |  | > 100 µM
CC1(C)OC2C(CO)OC(n3ccc(N)nc3=O)C2O1 (configuration not stated) |  | > 100 µM |  | > 100 |  | > 100 |  | > 100 µM |  | > 100 µM |  | > 100 |  | > 100 |  | > 100 |  | > 100 µM |  | > 100 µM
CCOC(=O)Nc1ccc2c(c1)N(C(=O)CCN(CC)CC)c1ccccc1S2 | 24.3 | > 76.8 µM and 85.3 µM |  | 48.6 | 11.4 | 30.6 | 17 | 37.1 µM and 167 µM | 36.1 | 34.3 µM and 100 µM |  | 95.1 | 74.2 | 141 | 31.3 | > 94.3 |  | 37.6 µM and 67 µM | 12.7 | 48.5 µM and 43.5 µM
